The source made the active and inactive calls. The rule behind the calls is not given here.
Experiments:
A2780 [1] = test: Inhibition of PBS-induced autophagy in human A2780 cells assessed as decrease in LC3-2 level at 50 to 100 uM preincubated for 1 hr followed by PBS induction measured after 3 hrs by Western blot analysis; assay type: functional, cell-based
A2780 [2] = test: Inhibition of PBS-induced autophagy in human A2780 cells assessed as decrease in depletion of p62 level at 50 to 100 uM preincubated for 1 hr followed by PBS induction measured after 3 hrs by Western blot analysis; assay type: functional, cell-based
MCF7 = test: Inhibition of chloroquine-induced autophagy in human MCF7 cells assessed as suppression of autophagosome formation at 25 uM after 5 hrs by MDC staining-based fluorescence microscopic analysis; assay type: functional, cell-based
A2780 [3] = test: Inhibition of PBS-induced autophagy in human A2780 cells assessed as decrease in depletion of p62 level preincubated for 1 hr followed by PBS induction measured after 3 hrs by Western blot analysis; assay type: functional, cell-based
A2780 [4] = test: Inhibition of PBS-induced autophagy in human A2780 cells assessed as decrease in LC3-2 level preincubated for 1 hr followed by PBS induction measured after 3 hrs by Western blot analysis; assay type: functional, cell-based
[5] = Cytotoxicity against human NCI60 cells assessed as cell growth at 10 uM after 24 hrs by SRB assay relative to control; assay type: functional; settings: NCI60, 24 h, read-out: Activity

Structure (SMILES) | inhibition (A2780 [1]) | inhibition (A2780 [2]) | inhibition (MCF7) | inhibition (A2780 [3]) | inhibition (A2780 [4]) | growth at 10 µM [5] [%]
O=C(NCCCc1ccccc1)c1ccccc1 | inactive | inactive |  |  |  | 
O=C(NCCCOc1ccccc1)c1cccc2ccccc12 | Active | Active | Active |  |  | 
COc1ccc(NC(=O)C(=O)NCCN2CCN(C(=O)c3ccc(Cl)cc3Cl)CC2)cc1 | inactive | inactive |  |  |  | 
O=C(NCCCCc1ccccc1)c1ccc(Cl)cc1Cl |  |  | Active | Dose-dependent effect | Dose-dependent effect | 
O=C(NCCCCc1ccccc1)c1cccc(Br)c1 | inactive | inactive |  |  |  | 
Cc1ccc(OCC(=O)Nc2ccc(N3CCN(C(=O)c4ccco4)CC3)cc2)cc1 | Active | Active |  |  |  | 
Cc1cccc(CS(=O)(=O)NCc2ccc(N3CCCC3)cc2)c1 | Active | Active | Active |  |  | 90.1
O=C(NCCCCc1ccccc1)c1ccccc1Br | inactive | inactive |  |  |  | 
O=C(NCCCCc1ccccc1)c1ccccc1F | Active | Active |  |  |  | 
O=C(NC1CCN(Cc2ccccc2)CC1)c1ccc(Cl)cc1Cl | inactive | inactive |  |  |  | 
O=C(CNC(=O)c1ccc(Cl)cc1Cl)OCC(=O)c1ccc(Br)cc1 | inactive | inactive |  |  |  | 
O=C(NCCCCc1ccccc1)c1ccc(Br)cc1 | inactive | inactive |  |  |  | 
